Test results reported in patent publication US12371428B2 (Exelixis, Inc., priority 2019, dated 2025).
Counter-ions that a name gives are not always drawn.

Assays:
[1] = biological target: Human MER (residues 528-999) (Homo sapiens (Human), UniProt Q12866); test: Human Mer kinase assay, HTRF KinEase (Example C-2); format: biochemical; conditions: protocol of Example C-2 (other compounds)
In short: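 IC50 values from 10 concentrations via 4-parameter logistic fit of […], with DMSO as 100% and 1 μM reference compound as 0% activity. Reaction: MER kinase domain 528-999, 1 ng/well, 40 μM ATP (Km), biotin peptide, 5 mM MgCl2, 1 mM DTT, 3% DMSO, room temperature 60 min; HTRF streptavidin-XL665/Eu-antibody detection.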

[2] = biological target: Human MET (residues 956-1390) (Homo sapiens (Human), UniProt P08581); test: Human Met kinase assay, HTRF KinEase (Example D-2); format: biochemical; conditions: protocol of Example D-2 (other compounds); read-out: c-Met IC50
In short: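 IC50 values come from a 4-parameter logistic fit of the […] fluorescence ratio, set between DMSO (100%) and reference compound at 1 μM (0%). Reactions held MET 956-1390 at 0.1 ng/well, ATP at Km, biotinylated peptide, 5 mM MgCl2, 1 mM MnCl2, 1 mM DTT and 3% DMSO, and ran 40 min at room temperature before streptavidin-XL665/Eu-antibody detection.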

[3] = biological target: Met (phospho-Met, HGF-stimulated PC-3 prostate cancer cells) (Homo sapiens (Human), UniProt P08581); test: Met autophosphorylation ELISA in PC-3 cells (Example F); format: cell-based; conditions: cellular activity; Met autophosphorylation ELISA in PC-3 cells; read-out: c-Met IC50
In short: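 Sandwich ELISA for phospho-Met (panTyr) in PC-3 lysates. Cells starved 3 h serum-free, compound 1 h (8-pt curve, 0.3% DMSO), HGF 100 ng/mL 10 min. 100% = HGF + DMSO; 0% = HGF + reference inhibitor. IC50 by 4-parameter fit.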

[4] = biological target: KDR (phospho-KDR, VEGF165-stimulated HUVEC cells) (Homo sapiens (Human), UniProt P35968); test: KDR autophosphorylation ELISA in HUVEC cells (Example G); format: cell-based; conditions: cellular activity; KDR autophosphorylation ELISA in HUVEC cells
In short: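 Read-out: phospho-KDR in cell lysates by DuoSet IC ELISA, normalised between VEGF-stimulated DMSO wells (100%) and unstimulated wells (0%). Human endothelial cells were starved overnight in serum-free medium, exposed to compound for 1 h, and then pulsed with 100 ng/mL VEGF165 for 5 min.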

Sequence of KDR (phospho-KDR, VEGF165-stimulated HUVEC cells) (P35968 20-1356): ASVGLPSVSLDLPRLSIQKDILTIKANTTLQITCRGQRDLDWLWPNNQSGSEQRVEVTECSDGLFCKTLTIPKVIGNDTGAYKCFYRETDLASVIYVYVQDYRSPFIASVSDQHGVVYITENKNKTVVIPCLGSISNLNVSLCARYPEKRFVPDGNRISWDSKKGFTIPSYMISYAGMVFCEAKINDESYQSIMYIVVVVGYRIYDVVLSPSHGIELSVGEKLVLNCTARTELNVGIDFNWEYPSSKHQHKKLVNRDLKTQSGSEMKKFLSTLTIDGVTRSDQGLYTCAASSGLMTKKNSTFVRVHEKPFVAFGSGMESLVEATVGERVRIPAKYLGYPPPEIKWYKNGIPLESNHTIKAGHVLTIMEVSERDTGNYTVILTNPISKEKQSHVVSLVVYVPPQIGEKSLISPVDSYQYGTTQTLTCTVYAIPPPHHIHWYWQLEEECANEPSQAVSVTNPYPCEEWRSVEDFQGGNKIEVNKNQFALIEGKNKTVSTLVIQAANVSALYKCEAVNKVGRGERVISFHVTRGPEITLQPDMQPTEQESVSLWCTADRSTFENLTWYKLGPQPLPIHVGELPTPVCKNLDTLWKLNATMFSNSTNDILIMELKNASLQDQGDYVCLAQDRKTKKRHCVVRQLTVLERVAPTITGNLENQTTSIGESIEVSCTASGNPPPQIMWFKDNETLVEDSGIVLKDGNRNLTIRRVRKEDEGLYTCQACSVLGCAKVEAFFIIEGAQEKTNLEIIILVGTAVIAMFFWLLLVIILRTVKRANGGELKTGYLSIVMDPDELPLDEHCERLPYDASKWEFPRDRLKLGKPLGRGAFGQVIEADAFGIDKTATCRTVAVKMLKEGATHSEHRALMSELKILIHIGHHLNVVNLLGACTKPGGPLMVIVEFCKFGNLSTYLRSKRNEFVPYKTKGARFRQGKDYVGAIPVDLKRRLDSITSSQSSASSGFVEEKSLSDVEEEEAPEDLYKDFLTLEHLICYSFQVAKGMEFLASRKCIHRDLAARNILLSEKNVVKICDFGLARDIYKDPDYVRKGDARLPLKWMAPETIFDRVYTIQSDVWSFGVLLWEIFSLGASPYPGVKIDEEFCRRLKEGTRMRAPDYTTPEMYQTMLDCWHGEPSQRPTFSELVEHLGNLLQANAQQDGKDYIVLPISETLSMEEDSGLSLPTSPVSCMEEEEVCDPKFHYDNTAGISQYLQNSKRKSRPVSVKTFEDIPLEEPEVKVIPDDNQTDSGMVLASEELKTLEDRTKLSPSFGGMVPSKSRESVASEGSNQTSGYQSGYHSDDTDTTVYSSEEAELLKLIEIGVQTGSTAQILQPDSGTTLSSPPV
Sequence of Human MER (residues 528-999) (Q12866 528-999): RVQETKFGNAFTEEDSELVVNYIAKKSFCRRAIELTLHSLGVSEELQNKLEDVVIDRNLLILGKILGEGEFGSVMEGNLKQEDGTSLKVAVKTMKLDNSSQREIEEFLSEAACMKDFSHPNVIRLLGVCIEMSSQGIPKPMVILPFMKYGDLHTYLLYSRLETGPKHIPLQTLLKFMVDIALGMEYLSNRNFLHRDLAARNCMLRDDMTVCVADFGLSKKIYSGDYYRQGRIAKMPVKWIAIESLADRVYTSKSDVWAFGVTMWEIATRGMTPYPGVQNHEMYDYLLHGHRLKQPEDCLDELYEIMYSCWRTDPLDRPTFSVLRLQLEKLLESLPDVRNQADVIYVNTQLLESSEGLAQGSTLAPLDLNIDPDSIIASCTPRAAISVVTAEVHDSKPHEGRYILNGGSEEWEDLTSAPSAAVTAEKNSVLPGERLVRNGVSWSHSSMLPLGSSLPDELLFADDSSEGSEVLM
Sequence of Human MET (residues 956-1390) (P08581 956-1390): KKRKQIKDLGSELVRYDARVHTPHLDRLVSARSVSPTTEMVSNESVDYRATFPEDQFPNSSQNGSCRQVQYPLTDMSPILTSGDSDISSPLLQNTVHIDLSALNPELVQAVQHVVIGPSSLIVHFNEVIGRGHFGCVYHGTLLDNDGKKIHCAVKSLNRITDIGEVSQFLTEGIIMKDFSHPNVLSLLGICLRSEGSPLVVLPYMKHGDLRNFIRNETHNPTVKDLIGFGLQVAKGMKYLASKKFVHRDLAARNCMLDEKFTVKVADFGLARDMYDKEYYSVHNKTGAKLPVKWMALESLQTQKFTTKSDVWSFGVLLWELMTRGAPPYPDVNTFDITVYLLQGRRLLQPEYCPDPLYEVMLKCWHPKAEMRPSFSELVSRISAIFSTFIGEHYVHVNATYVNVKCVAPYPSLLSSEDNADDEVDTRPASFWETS
Sequence of Met (phospho-Met, HGF-stimulated PC-3 prostate cancer cells) (P08581 25-1390): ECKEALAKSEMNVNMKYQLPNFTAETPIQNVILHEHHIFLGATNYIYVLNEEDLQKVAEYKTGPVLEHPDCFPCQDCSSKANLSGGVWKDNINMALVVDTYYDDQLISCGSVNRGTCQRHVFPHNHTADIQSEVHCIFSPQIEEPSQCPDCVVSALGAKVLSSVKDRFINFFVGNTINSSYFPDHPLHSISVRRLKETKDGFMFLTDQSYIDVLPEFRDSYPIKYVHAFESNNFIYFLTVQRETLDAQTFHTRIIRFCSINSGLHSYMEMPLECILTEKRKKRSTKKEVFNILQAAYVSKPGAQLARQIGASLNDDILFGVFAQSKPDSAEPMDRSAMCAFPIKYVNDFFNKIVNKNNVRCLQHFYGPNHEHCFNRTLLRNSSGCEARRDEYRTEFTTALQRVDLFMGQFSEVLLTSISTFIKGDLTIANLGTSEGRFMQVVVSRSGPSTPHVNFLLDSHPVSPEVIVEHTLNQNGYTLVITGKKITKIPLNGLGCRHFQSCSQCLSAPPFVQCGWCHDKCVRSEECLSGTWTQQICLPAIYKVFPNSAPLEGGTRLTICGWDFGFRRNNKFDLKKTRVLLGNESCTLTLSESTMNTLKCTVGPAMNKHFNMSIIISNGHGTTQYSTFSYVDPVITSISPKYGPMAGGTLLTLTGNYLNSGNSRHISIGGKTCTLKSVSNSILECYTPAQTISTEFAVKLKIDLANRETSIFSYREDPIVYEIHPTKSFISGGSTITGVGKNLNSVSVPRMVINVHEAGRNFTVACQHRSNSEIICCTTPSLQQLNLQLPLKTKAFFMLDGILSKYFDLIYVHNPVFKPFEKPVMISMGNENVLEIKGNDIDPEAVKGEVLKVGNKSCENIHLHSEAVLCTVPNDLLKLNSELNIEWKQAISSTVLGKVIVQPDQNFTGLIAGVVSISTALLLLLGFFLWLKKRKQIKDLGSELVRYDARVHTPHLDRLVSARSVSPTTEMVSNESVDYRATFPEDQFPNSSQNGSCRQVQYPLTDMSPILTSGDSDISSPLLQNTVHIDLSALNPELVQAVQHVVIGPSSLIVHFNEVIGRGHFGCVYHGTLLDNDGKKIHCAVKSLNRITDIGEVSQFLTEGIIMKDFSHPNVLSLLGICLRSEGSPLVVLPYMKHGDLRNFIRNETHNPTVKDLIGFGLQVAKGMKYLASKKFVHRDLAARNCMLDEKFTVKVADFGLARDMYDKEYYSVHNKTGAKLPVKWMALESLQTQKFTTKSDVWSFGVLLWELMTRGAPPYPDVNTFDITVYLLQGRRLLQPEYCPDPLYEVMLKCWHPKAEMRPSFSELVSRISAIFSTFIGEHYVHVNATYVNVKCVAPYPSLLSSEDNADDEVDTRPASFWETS

SMILES	IC50 [1] [nM]	IC50 [2] [nM]	IC50 [3] [nM]	IC50 [4] [nM]
COc1cc2nccc(Oc3ccc(NC(=O)C4=C5CCCN5CC(c5ccc(F)cc5)C4=O)cc3F)c2nc1OC (racemic) [Compound 373, N-[4-[(6,7-dimethoxy-1,5-naphthyridin-4-yl)oxy]-3-fluorophenyl]-6-(4-fluorophenyl)-7-oxo-2,3,5,6-tetrahydro-1H-indolizine-8-carboxamide]	< 100	< 100	< 100	> 300
Cc1ncc(C(=O)Nc2ccc(Oc3ccnc4cc(-c5cnn(C(F)F)c5)ccc34)cc2)c(O)c1-c1ccc(F)cc1 [Compound 377, N-[4-[7-[1-(difluoromethyl)pyrazol-4-yl]quinolin-4-yl]oxyphenyl]-5-(4-fluorophenyl)-4-hydroxy-6-methylpyridine-3-carboxamide]	< 100	100 to 300	< 100	< 100
COc1cc2nccc(Oc3ccc(NC(=O)c4c(C)ccn(-c5ccc(F)cc5)c4=O)cc3)c2nc1OC [Compound 299, N-[4-[(6,7-Dimethoxy-1,5-naphthyridin-4-yl)oxy]phenyl]-1-(4-fluorophenyl)-4-methyl-2-oxopyridine-3-carboxamide]	< 100	< 100	< 100	< 100
COc1ccc2nccc(Oc3ccc(NC(=O)c4c(C)cc(C)n(-c5ccc(F)cc5C)c4=O)cc3F)c2n1 [Compound 296, N-[3-Fluoro-4-[(6-methoxy-1,5-naphthyridin-4-yl)oxy]phenyl]-1-(4-fluoro-2-methylphenyl)-4,6-dimethyl-2-oxopyridine-3-carboxamide]	< 100	100 to 300	< 100	< 100
COc1cc2nccc(Oc3ccc(NC(=O)c4cc(C(C)C)c(C)n(-c5ccc(F)cc5)c4=O)cc3F)c2nc1OC [Compound 368, N-[4-[(6,7-dimethoxy-1,5-naphthyridin-4-yl)oxy]-3-fluorophenyl]-1-(4-fluorophenyl)-6-methyl-2-oxo-5-propan-2-ylpyridine-3-carboxamide]	< 100	< 100	< 100	< 100
COc1ccc2nccc(Oc3ccc(NC(=O)c4cccn(-c5ccc(F)cc5)c4=O)cc3F)c2n1 [Compound 292, N-[3-Fluoro-4-[(6-methoxy-1,5-naphthyridin-4-yl)oxy]phenyl]-1-(4-fluorophenyl)-2-oxopyridine-3-carboxamide]	< 100	< 100	< 100	< 100
COc1cc2nccc(Oc3ccc(NC(=O)c4cn(C)cc(-c5ccc(Cl)cc5)c4=O)cc3F)c2nc1OC [Compound 38, 5-(4-Chlorophenyl)-N-[4-[(6,7-dimethoxy-1,5-naphthyridin-4-yl)oxy]-3-fluorophenyl]-1-methyl-4-oxopyridine-3-carboxamide hydrochloride]	< 100	< 100	100 to 300	< 100
CCn1cc(C(=O)Nc2ccc(Oc3ccnc4cc(OC)c(OC)nc34)c(F)c2)c(=O)c(-c2ccc(F)cc2C)c1CO [Compound 283, N-[4-[(6,7-Dimethoxy-1,5-naphthyridin-4-yl)oxy]-3-fluorophenyl]-1-ethyl-5-(4-fluoro-2-methylphenyl)-6-(hydroxymethyl)-4-oxopyridine-3-carboxamide]	< 100	< 100	< 100	100 to 300
COc1cc2nccc(Oc3ccc(NC(=O)c4c(C)ccn(-c5ccc(F)cc5)c4=O)cc3F)c2nc1OC [Compound 286, N-[4-[(6,7-Dimethoxy-1,5-naphthyridin-4-yl)oxy]-3-fluorophenyl]-1-(4-fluorophenyl)-4-methyl-2-oxopyridine-3-carboxamide]	< 100	< 100	< 100	< 100
COc1ccc2nccc(Oc3ccc(NC(=O)c4ccc(C)n(-c5ccc(F)cc5C)c4=O)cc3)c2n1 [Compound 276, 1-(4-Fluoro-2-methylphenyl)-N-[4-[(6-methoxy-1,5-naphthyridin-4-yl)oxy]phenyl]-6-methyl-2-oxopyridine-3-carboxamide]	< 100	100 to 300	100 to 300	< 100
COc1ccc2nccc(Oc3ccc(NC(=O)c4c(C)cc(C)n(-c5ccc(F)cc5)c4=O)cc3F)c2n1 [Compound 281, N-[3-Fluoro-4-[(6-methoxy-1,5-naphthyridin-4-yl)oxy]phenyl]-1-(4-fluorophenyl)-4,6-dimethyl-2-oxopyridine-3-carboxamide]	< 100	< 100	< 100	< 100
Cc1nc(C)c(-c2ccc(F)cc2)c(O)c1C(=O)Nc1ccc(Oc2ccnc3ccc(OCCN4CCOCC4)nc23)c(F)c1 [Compound 355, N-[3-fluoro-4-[[6-(2-morpholin-4-ylethoxy)-1,5-naphthyridin-4-yl)oxy]phenyl]-5-(4-fluorophenyl)-4-hydroxy-2,6-dimethylpyridine-3-carboxamide]	< 100	< 100	< 100	< 100
COc1ccc2nccc(Oc3ccc(NC(=O)c4ncc(C)n(-c5ccc(F)cc5)c4=O)cc3)c2n1 [Compound 378, 4-(4-fluorophenyl)-N-[4-[(6-methoxy-1,5-naphthyridin-4-yl)oxy]phenyl]-5-methyl-3-oxopyrazine-2-carboxamide]	< 100	< 100	< 100	> 300
CCn1cc(C(=O)Nc2ccc(Oc3ccnc4cc(OC)c(OC)nc34)cc2)c(=O)c(-c2ccc(F)cc2C)c1CO [Compound 284, N-[4-[(6,7-Dimethoxy-1,5-naphthyridin-4-yl)oxy]phenyl]-1-ethyl-5-(4-fluoro-2-methylphenyl)-6-(hydroxymethyl)-4-oxopyridine-3-carboxamide]	< 100	< 100	< 100	> 300
COc1cnc2c(Oc3ccc(NC(=O)c4cn(C)cc(-c5ccccc5)c4=O)cc3F)ccnc2c1 [Compound 40, N-[3-Fluoro-4-[(7-methoxy-1,5-naphthyridin-4-yl)oxy]phenyl]-1-methyl-4-oxo-5-phenylpyridine-3-carboxamide hydrochloride]	< 100	< 100	< 100	< 100
COc1cnc2c(Oc3ccc(NC(=O)c4cnc(C)n(-c5ccc(F)cc5)c4=O)cc3F)ccnc2c1 [Compound 265, N-[3-Fluoro-4-[(7-methoxy-1,5-naphthyridin-4-yl)oxy]phenyl]-1-(4-fluorophenyl)-2-methyl-6-oxopyrimidine-5-carboxamide]	< 100	< 100	< 100	100 to 300
COc1cnc2c(Oc3ccc(NC(=O)c4cnc(C)n(-c5ccc(F)cc5)c4=O)cc3)ccnc2c1 [Compound 266, 1-(4-Fluorophenyl)-N-[4-[(7-methoxy-1,5-naphthyridin-4-yl)oxy]phenyl]-2-methyl-6-oxopyrimidine-5-carboxamide]	< 100	< 100	< 100	> 300
COc1cc2nccc(Oc3c(F)cc(NC(=O)c4cn(C)c(C)c(-c5ccc(F)cc5)c4=O)cc3F)c2nc1OC [Compound 392, N-[4-[(6,7-dimethoxy-1,5-naphthyridin-4-yl)oxy]-3,5-difluorophenyl]-5-(4-fluorophenyl)-1,6-dimethyl-4-oxopyridine-3-carboxamide]	< 100	< 100	< 100	> 300
COc1cc2nccc(Oc3ccc(NC(=O)c4cn(C)c(C)c(-c5ccc(F)cc5)c4=O)cc3Cl)c2nc1OC [Compound 388, N-[3-chloro-4-[(6,7-dimethoxy-1,5-naphthyridin-4-yl)oxy]phenyl]-5-(4-fluorophenyl)-1,6-dimethyl-4-oxopyridine-3-carboxamide]	< 100	< 100	< 100	< 100
CCn1cc(C(=O)Nc2ccc(Oc3ccnc4cc(OC)c(OC)nc34)cc2)c(=O)c(-c2ccc(F)cc2)c1CO [Compound 272, N-[4-[(6,7-Dimethoxy-1,5-naphthyridin-4-yl)oxy]phenyl]-1-ethyl-5-(4-fluorophenyl)-6-(hydroxymethyl)-4-oxopyridine-3-carboxamide]	< 100	< 100	< 100	> 300
